The values below come from PMC9386913 (Arthritis Research & Therapy, 2022).

One assay deals with THP-1 cells. Briefly: In vitro tachyphylaxis model: daily treatment of THP-1 cells, LPS-stimulated TNF. The following applies: up to 14 days, 0.1 or 1 μM CC-99677 or 1 μM p38 inhibitors.
The test system of assay [1] is c-Jun N-terminal kinase (JNK). The following applies: THP-1 cells, macrophages, and synoviocytes; cited from earlier work.
Another assay deals with TNF. Details: method as in PMID 26904383. The note with it: similar assay and clinical study design; no reference printed, BCT197 paper is ref 53; cited from earlier work.
Another assay has as its system LPS-induced TNF. More on the design: method as in PMID 29549113. The following applies: mouse model of NOMID, up to 4 weeks after dosing; cited from earlier work.

Regarding `CCCNC(=O)c1cn2ncnc(Nc3cc(C(=O)NC4CC4)ccc3C)c2c1C` [BMS-582949], the “LPS-stimulated TNF production under continued daily treatment” value (from here on “LPS-stimulated TNF production”) in the assay with THP-1 cells is “beginning on day 9, loss of TNF inhibitory effect”. In the case of `O=c1ncn2nc(Sc3ccc(F)cc3F)ccc2c1-c1c(Cl)cccc1Cl` [VX-745], the “Activation of c-Jun N-terminal kinase (JNK) upon treatment” value in assay [1] was “activation of c-Jun N-terminal kinase (JNK)”. On to `C[S+]([O-])c1ccc(-c2nc(-c3ccncc3)c(-c3ccc(F)cc3)[nH]2)cc1` (centres unmarked) [SB203580], for which, in assay [1], the “Activation of c-Jun N-terminal kinase (JNK) upon treatment” value is listed as “activation of c-Jun N-terminal kinase (JNK)”. As for `Cc1ccc(C(=O)NC2CC2)cc1-n1ncc(C(=O)c2cccc(C#N)c2)c1N` [BCT197], the “Sustained TNF inhibition over treatment period” value in the assay with TNF is reported as “loss of effect”. With `Cc1cnc(-c2ccnc(C(C)(C)O)n2)cc1-n1c(C)cc(OCc2ncc(F)cc2F)c(Cl)c1=O` [ATI-450], the “Inhibition of LPS-induced TNF” value in the assay with LPS-induced TNF was “showed inhibition of LPS-induced TNF for up to 4 weeks after dosing”. On to `O=C(CO)N1CCC(c2[nH]nc(-c3ccc(Cl)cc3)c2-c2ccncn2)CC1` [CDD-111], for which the “Inhibition of LPS-induced TNF” value in the assay with LPS-induced TNF is “did not”. Turning to `C[C@@H]1CN(Cc2ccc(F)cc2)[C@@H](C)CN1C(=O)c1cc2c(C(=O)C(=O)N(C)C)cn(C)c2cc1Cl` [SCIO-469], the “LPS-stimulated TNF production” value with THP-1 cells is reported as “beginning on day 9, loss of TNF inhibitory effect”.

Take `Cc1ccc(-n2nc(C(C)(C)C)cc2NC(=O)Nc2ccc(OCCN3CCOCC3)c3ccccc23)cc1` [BIRB-796]: in the assay on THP-1 cells, the “LPS-stimulated TNF production” value is “beginning on day 9, loss of TNF inhibitory effect”.
